Values after ≈ are worked out from the molar mass of the structure shown. Values joined by “and” are separate entries in the source; they are usually repeats but may differ in a detail not shown here. Identical values can stand only once.
Key:
Proteus vulgaris A21559 = assay: MIC, tube dilution, Proteus vulgaris A21559; type: cell-based; conditions: Proteus vulgaris A21559; overnight 37° C.
Description: (§1) Representative compounds of the present invention were subjected to in vitro antibiotic screening against a variety of microorganisms.

Proteus rettgeri A21203 = assay: MIC, tube dilution, Proteus rettgeri A21203; type: cell-based; conditions: Proteus rettgeri A21203; overnight 37° C.
Description: as §1

Ent. cloacae A-9656 = assay: MIC, tube dilution, Enterobacter cloacae A9656; type: cell-based; conditions: Enterobacter cloacae A9656; overnight 37° C.
Description: as §1

E. coli A-15119 = assay: MIC, tube dilution, Escherichia coli A15119; type: cell-based; conditions: overnight 37° C.
Description: as §1

Ps. aeruginosa A-9843A = assay: MIC, tube dilution, Pseudomonas aeruginosa A9843A; type: cell-based; conditions: overnight 37° C.
Description: as §1

[1] = tested on: Staph. aureus (Meth-Res) A-15097; assay: MIC, tube dilution, Staphylococcus aureus A15097 (Meth-Res); type: cell-based; conditions: Staph. aureus A15097 (Meth-Res), overnight 37° C.; for MIC: Staphylococcus aureus, read-out: Minimum Inhibitory Concentration (M.I.C.)
Description: as §1

Str. faecalis A-20688 = assay: MIC, tube dilution, Streptococcus faecalis A20688; type: cell-based; conditions: overnight 37° C.; for Minimum Inhibitory Concentration (M.I.C.): Str. faecalis A20688
Description: as §1

Staph. aureus A-9537 = assay: MIC, tube dilution, Staphylococcus aureus A9537; type: cell-based; conditions: Staph. aureus A9537; overnight 37° C., Nutrient Broth
Description: as §1

E. coli A15119 = assay: In vivo protection of mice, lethal infection with E. coli A15119; conditions: Escherichia coli, IM, 2 treatments, 7.8 × 10^5 organisms, read-out: PD50
Procedure: (§2) Representative compounds of the present invention were also tested in vivo in mice and their PD50 (dose of compound in mg/kg required to protect 50% of the treated mice against an otherwise lethal infection of a micro-organism) values determined with respect to the test organisms shown below.

Ent. cloacae A-9659 = assay: MIC, tube dilution, Enterobacter cloacae A9659; type: cell-based; conditions: Enterobacter cloacae A9659; overnight 37° C.
Description: as §1

[2] = tested on: Staph. aureus (Pen-Res) A-9606; assay: MIC, tube dilution, Staphylococcus aureus A9606 (Pen-Res); type: cell-based; conditions: Staph. aureus A9606 (Pen-Res), overnight 37° C.
Description: as §1

E. coli A-20341-1 = assay: MIC, tube dilution, Escherichia coli A20341-1; type: cell-based; conditions: overnight 37° C.; for MIC: Escherichia coli, A203411, E. coli A20341-1, read-out: Minimum Inhibitory Concentration (M.I.C.)
Description: as §1

Str. pyogenes A-9604 = assay: MIC, tube dilution, Streptococcus pyogenes A9604; type: cell-based; conditions: Str. pyogenes A9604; overnight 37° C., Nutrient Broth
Description: as §1

S. aureus A9537 = assay: In vivo protection of mice, lethal infection with S. aureus A9537; conditions: IM, 2 treatments, 9.1 × 10^5 organisms; listed as Ex. 98 (isomer A)
Procedure: as §2

Ps. aeruginosa A-21213 = assay: MIC, tube dilution, Pseudomonas aeruginosa A21213; type: cell-based; conditions: overnight 37° C.; for MIC: Pseudomonas aeruginosa, A21213, Pseudomonas aeruginosa A21213, read-out: Minimum Inhibitory Concentration (M.I.C.)
Description: as §1

[3] = tested on: Klebsiella species A20468; assay: MIC, tube dilution, Klebsiella species A20468; type: cell-based; conditions: Klebsiella species (K. pneumoniae) A20468, overnight 37° C.; for MIC: read-out: Minimum Inhibitory Concentration (M.I.C.)
Description: as §1

[4] = tested on: Staph. aureus A-9537 and 50% serum; assay: MIC, tube dilution, Staph. aureus A9537 + 50% serum; type: cell-based, Staphylococcus aureus; conditions: overnight 37° C.
Description: as §1

K. pneumoniae A-15130 = assay: MIC, tube dilution, Klebsiella pneumoniae A15130; type: cell-based; conditions: overnight 37° C.
Description: as §1

Pr. mirabilis A-9900 = assay: MIC, tube dilution, Proteus mirabilis A9900; type: cell-based; conditions: Proteus mirabilis A9900; overnight 37° C.
Description: as §1

Pr. morganii A-15153 = assay: MIC, tube dilution, Proteus morganii A15153; type: cell-based; conditions: Proteus morganii A15153; overnight 37° C.
Description: as §1

Str. pneumoniae A-9585 = assay: MIC, tube dilution, Streptococcus pneumoniae A9585; type: cell-based; conditions: Str. pneumoniae A9585; overnight 37° C., Nutrient Broth
Description: as §1

Ser. marcescens A-20019 = assay: MIC, tube dilution, Serratia marcescens A20019; type: cell-based; conditions: Serratia marcescens A20019; overnight 37° C.
Description: as §1

Proteus vulgaris A9555 = assay: MIC, tube dilution, Proteus vulgaris (mirabilis) A9555; type: cell-based; conditions: overnight 37° C., read-out: Minimum Inhibitory Concentration (M.I.C.)
Description: as §1

Pr. vulgaris A-9716 = assay: MIC, tube dilution, Proteus vulgaris / Proteus mirabilis A9716; type: cell-based, Proteus vulgaris (name changed to Proteus mirabilis); conditions: Proteus vulgaris / Proteus mirabilis A9716; overnight 37° C.
Description: as §1

[5] = stability in aqueous solution followed by UV; type: physicochemical; parameters: unit not given here; conditions: UV, aqueous solution
Procedure: To a solution of penem 3 (2.4 g, 6.89 mmoles) in tetrahydrofuran-ether-water mixture (1:1:1, 165 ml) was added 30% palladium on diatomaceous earth (4.8 g). The reaction mixture was hydrogenated under 45 p.s.i. at 23° C. for 2.5 h and filtered over celite pad. The filtrate and washings were combined, washed twice with ether, centrifugated and filtered several times to give a clear solution which was lyophilized; 0.622 g, 45%. The crystallization of the compound was induced by the addition of water (0.8 ml); the suspension was centrifuged and the water was removed leaving an orange solid. This solid was washed twice with water and a slightly yellow solid was obtained after drying: […], 19.8%. UV λmax^H.sbsp.2^O : 307 (ε=4318) and 257 (ε=2650). Some crude starting material (1.2 g, 50%) was recovered. The compound (50 mg) can also be purified by column chromatography [Sephadex G10, column size: 1.6×100 cm, flow rate: 10 ml/h, eluent: distilled water, fraction volume: 1.5 ml, detector: refractive index]. UV λmax^H.sbsp.2^O 307 (ε=3597) and 255 (ε=2424).
The stability of the compound in aqueous solution was checked by:
A sample of compound 4 was kept at 23° C. for 3 days and the UV was taken: UV λmax^H.sbsp.2^O : 307 (ε=3055) and 255 (ε=2008).
To a solution of ester 6 (200 mg, 0.5 mmole) in tetrahydrofuran (10 ml) was added ether (10 ml), water (10 ml) and 30% palladium on diatomaceous earth (200 mg). The reaction mixture was hydrogenated in a Parr apparatus under 35 p.s.i. at 25° C. for 2 h 30 min and filtered over a celite pad. The filtrate was washed twice with ether and the aqueous solution was lyophilized, giving a yellow powder which was purified by column chromatography [Sephadex G-10, bed dimensions: 100×1.6 cm, flow rate: 12 ml/h, eluent: distilled water, fraction volume: 1.5 ml detector: refractive index]. The right fractions were combined and lyophilized to give a white powder (10 mg, 8.8%). UV λmax^H.sbsp.2 O 301 (ε=4930), 258 (ε=3290). IR (KBr) cm^-1 :1770 (c=o of β-lactam) and 1580 [drawing 587] The stability of compound 7 in aqueous solution was followed by UV; after 6 h: 301 (4795) and 258 (3105) and after 72 h: 301 (4565) and 258 (3150). […]

SMILES	Minimum Inhibitory Concentration (M.I.C.) (Proteus rettgeri A21203)	Minimum Inhibitory Concentration (M.I.C.) (Ent. cloacae A-9656)	MIC [1]	Minimum Inhibitory Concentration (M.I.C.) (Str. faecalis A-20688)	Minimum Inhibitory Concentration (M.I.C.) (Staph. aureus A-9537)	Minimum Inhibitory Concentration (M.I.C.) (Ent. cloacae A-9659)	MIC (E. coli A-20341-1)	Minimum Inhibitory Concentration (M.I.C.) (Str. pyogenes A-9604)	MIC (Ps. aeruginosa A-21213)	MIC [3]	Minimum Inhibitory Concentration (M.I.C.) [4]	Minimum Inhibitory Concentration (M.I.C.) (Pr. mirabilis A-9900)	Minimum Inhibitory Concentration (M.I.C.) (Pr. morganii A-15153)	Minimum Inhibitory Concentration (M.I.C.) (Str. pneumoniae A-9585)	Minimum Inhibitory Concentration (M.I.C.) (Ser. marcescens A-20019)	further results
NC1CCC(C2=C(C(=O)O)N3C(=O)C[C@H]3S2)C1 (single isomer, unassigned) [98 isomer A, 2-(3-Aminocyclopentyl)-penem-3-carboxylic acid]	1 µg/mL	2 µg/mL	> 63 µg/mL	4 µg/mL	.03 µg/mL	4 µg/mL	16 µg/mL (≈ 62.9 µM)	.004 µg/mL	> 63 µg/mL	> 63 µg/mL	.13 µg/mL	1 µg/mL	4 µg/mL	.004 µg/mL	2 µg/mL	Minimum Inhibitory Concentration (M.I.C.) (Proteus vulgaris A21559): 2 µg/mL; MIC (E. coli A-15119; Escherichia coli, A15119, E. coli A15119, read-out: Minimum Inhibitory Concentration (M.I.C.)): 1 µg/mL (≈ 3.93 µM); MIC (Ps. aeruginosa A-9843A; Pseudomonas aeruginosa, A9843A, read-out: Minimum Inhibitory Concentration (M.I.C.), Pseudomonas aeruginosa A9843A): > 63 µg/mL; ED50 (E. coli A15119): 17.4 mg/kg; MIC ([2]; Staphylococcus aureus, read-out: Minimum Inhibitory Concentration (M.I.C.)): 32 µg/mL (≈ 126 µM); PD50 (S. aureus A9537): 0.04 mg/kg/treatment; MIC (K. pneumoniae A-15130; Klebsiella pneumoniae, A15130, K. pneumoniae A15130, read-out: Minimum Inhibitory Concentration (M.I.C.)): 4 µg/mL (≈ 15.7 µM)
NCCCC1=C(C(=O)O)N2C(=O)CC2S1 (stereo not shown) [Example 51, 2-(γ-Aminopropyl)penem-3-carboxylic Acid]	16 µg/mL and 8 µg/mL	32 µg/mL	63 µg/mL (≈ 276 µM)	125 µg/mL	2 µg/mL and 1 µg/mL	16 µg/mL	> 63 µg/mL	2 µg/mL and 1 µg/mL	63 µg/mL (≈ 276 µM)	> 63 µg/mL	63 µg/mL and > 32 µg/mL	16 µg/mL and 8 µg/mL	32 µg/mL and 16 µg/mL	.25 µg/mL	32 µg/mL and 16 µg/mL	MIC (Proteus vulgaris A9555): 63 µg/mL (≈ 276 µM); Minimum Inhibitory Concentration (M.I.C.) (E. coli A-15119; E. coli A15119): 16 µg/mL and 8 µg/mL; Minimum Inhibitory Concentration (M.I.C.) (Ps. aeruginosa A-9843A; Pseudomonas aeruginosa A9843A): 125 µg/mL and 63 µg/mL; Minimum Inhibitory Concentration (M.I.C.) [1]: 125 µg/mL; MIC (Str. faecalis A-20688; Enterococcus faecalis, A20688, Str. faecalis A20688, read-out: Minimum Inhibitory Concentration (M.I.C.)): 63 µg/mL (≈ 276 µM); Minimum Inhibitory Concentration (M.I.C.) [2]: 63 µg/mL and 32 µg/mL; Minimum Inhibitory Concentration (M.I.C.) (E. coli A-20341-1; E. coli A20341-1): 125 µg/mL; Minimum Inhibitory Concentration (M.I.C.) (Pr. vulgaris A-9716): 16 µg/mL; Minimum Inhibitory Concentration (M.I.C.) (Ps. aeruginosa A-21213; Pseudomonas aeruginosa A21213): 125 µg/mL; Minimum Inhibitory Concentration (M.I.C.) [3]: > 125 µg/mL; Minimum Inhibitory Concentration (M.I.C.) (K. pneumoniae A-15130; K. pneumoniae A15130): 32 µg/mL; ε at 258 in aqueous solution (stability) ([5]; after 6 h): 3105; ε at 301 in aqueous solution (stability) ([5]; after 6 h): 4795; ε at 258 in aqueous solution (stability) ([5]; after 72 h): 3150; ε at 301 in aqueous solution (stability) ([5]; after 72 h): 4565

Source: patent US4272437A, “Antibacterial agents, and 4-thio azetidinone intermediates” (priority 1979, dated 1981)
